Drawing on US11420976B2 (priority 2020, dated 2022), this text covers EC50 for 31 compounds.

Molecules are shown by their SMILES.

The first assay has as its system Human RSV-A (“Long” strain). Put plainly: RSV-A assay (CPE, ATPlite readout in Hep-2 cells). It is filed as cell-based. To be noted: human respiratory syncytial virus, 120 h; Hep-2 cells, MOI 0.1, 5-day incubation, ATPlite; read-out: Human RSV-A (“Long” strain) EC50. From the text: Hep-2 cells, (originally derived from tumors grown in irradiated-cortisonised weanling rats that had been injected with epidermoid carcinoma tissue from a person's larynx, but later found to be indistinguishable from HeLa cells by PCR DNA analysis), were used for the culturing of genotype A, “Long” strain RSV. Flasks were inoculated with RSV and viral stocks were collected once cytopathic effect (CPE) was greater than 90%. Viral stocks in 25% sucrose media were snap frozen using liquid nitrogen to increase viral stability. Viral stock titers were quantified by tissue culture infectious dose 50% (TCID50) using 8,000 cells per well and 3-fold viral dilutions across a 96-well plate, cultured for 4 days. Viral stock titers were also quantified by a plaque forming unit assay, as described elsewhere.
Following extensive parameter testing, the final assay is run as follows: Hep-2 cells are seeded into the inner 60 wells of a 96-well plate at 8,000 cells per well in a volume of 50 μL using Growth Media (DMEM without phenol red, 1% L-Glut, 1% Penn/Strep, 1% nonessential amino acids, 10% heat-inactivated FBS). 2-fold serial dilutions of control and test compounds are added to the wells in duplicate in a total volume of 25 μL. Viral stock is then added to the wells at a multiplicity of infection (MOI) of 0.1 in a volume of 25 μL, bringing the total volume of each well to 100 μL. The MOI is calculated using the PFU/mL, or TCID50 if unavailable. Each 96-well plate has a control column of 6 wells with cells and virus but no compound (negative control, max CPE), a column with cells but no compound or virus (positive control, minimum CPE), and a column with no cells or virus or compound (background plate/reagent control). The control wells with cells but no virus are given an additional […], of growth media containing an equal quantity of sucrose as those wells receiving the viral stock in order to keep consistent in media and volume conditions. The outer wells of the plate are filled with 125 μL of moat media (DMEM, 1% Penn/Strep) to act as a thermal and evaporative moat around the test wells. Following a 5-day incubation period, the plates are read using ATPlite (50 uL added per well), which quantifies the amount of ATP (a measure of cell health) present in each well. Assay plates are read using the Envision luminometer. […] EC50 ranges are as follows: A<0.2 μM; B≥0.2 μM.
(In ATP-based viability assays light output follows the ATP content of the culture.)
By EC50 is commonly meant the concentration needed to bring the measured effect to its halfway point. As to `COc1ccc(C(=O)NC[C@](O)(c2cc3c(c(-c4ccc(F)cc4)n2)OC[C@@]3(N)C(F)(F)F)C(F)(F)F)cc1OC` [Example 34], the EC50 was > 0.2 µM.

For `COC(=O)N[C@@]1(C(F)(F)F)COc2c1cc([C@@](O)(CNC(=O)c1ccc(OC3CC3)c(OC)c1)C(F)(F)F)nc2-c1ccc(F)cc1` [Example 44], the EC50 was > 0.2 µM.

As for `COc1ccc2nc(C(=O)NC[C@](O)(c3cc4c(c(-c5ccc(F)cc5)n3)OC[C@@]4(N)C(F)(F)F)C(F)(F)F)cc(OC)c2c1` [Example 43], the EC50 is > 0.2 µM.

With `N[C@@]1(C(F)(F)F)COc2c1cc([C@](O)(CO)CNC(=O)c1cc(OC3CC3)c3ncccc3c1)nc2-c1ccc(F)cc1` [Example 59], the EC50 is > 0.2 µM.

In the case of `COc1cc(C(=O)NC[C@@](O)(c2cc3c(c(-c4ccc(F)cc4)n2)OC[C@@]3(N)C(F)(F)F)C(F)(F)F)ccc1OC1CC1` [Example 2, N—((R)-2-((R)-3-amino-7-(4-fluorophenyl)-3-(trifluoromethyl)-2,3-dihydrofuro[2,3-c]pyridin-5-yl)-3,3,3-trifluoro-2-hydroxypropyl)-4-cyclopropoxy-3-methoxybenzamide], the EC50 was > 0.2 µM.

For the compound `COC[C@](O)(CNC(=O)c1cc(OC2CC2)c2ncccc2c1)c1cc2c(c(-c3ccc(F)cc3)n1)OC[C@@]2(N)C(F)(F)F` [Example 50, N—((S)-2-((R)-3-amino-7-(4-fluorophenyl)-3-(trifluoromethyl)-2,3-dihydrofuro[2,3-c]pyridin-5-yl)-2-hydroxy-3-methoxypropyl)-8-cyclopropoxyquinoline-6-carboxamide], the concentration giving a half-maximal response (EC50) is < 0.2 µM.

Take `COc1cc(F)c(C(=O)NC[C@](O)(c2cc3c(c(-c4ccc(F)cc4)n2)OC[C@@]3(N)C(F)(F)F)C(F)(F)F)cc1OC` [Example 38]: the EC50 was > 0.2 µM.

For the compound `N[C@@]1(C(F)(F)F)COc2c1cc([C@@](O)(CNC(=O)c1cc(OC3CC3)c3[nH]c(=O)ccc3c1)C1CC1)nc2-c1ccc(F)cc1` [Example 59c], the EC50 was > 0.2 µM.

Consider `COc1cc(C(=O)NC[C@](O)(c2cc3c(c(-c4ccc(F)cc4)n2)OC[C@@]3(N)C(F)(F)F)C(F)(F)F)cc(F)c1OC1CC1` [Example 39], for which the EC50 is > 0.2 µM.

For `COc1cc(C(=O)NC[C@](O)(c2cc3c(c(-c4ccc(F)cc4)n2)OC[C@@]3(N)C(F)(F)F)C(C)(C)C)ccc1OC1CC1` [Example 12, N—((S)-2-((R)-3-amino-7-(4-fluorophenyl)-3-(trifluoromethyl)-2,3-dihydrofuro[2,3-c]pyridin-5-yl)-2-hydroxy-3,3-dimethylbutyl)-4-cyclopropoxy-3-methoxybenzamide], the EC50 is > 0.2 µM.

In the case of `C[C@](O)(CNC(=O)c1cc(OC2CC2)c2ncccc2c1)c1cc2c(c(-c3ccc(F)cc3)n1)OC[C@@]2(N)C(F)(F)F` [Example 16, N—((S)-2-((R)-3-amino-7-(4-fluorophenyl)-3-(trifluoromethyl)-2,3-dihydrofuro[2,3-c]pyridin-5-yl)-2-hydroxypropyl)-8-cyclopropoxyquinoline-6-carboxamide], the EC50 was < 0.2 µM.

Consider `COc1cc(C(=O)NC[C@](C)(O)c2cc3c(c(-c4ccc(F)cc4)n2)OC[C@@]3(N)C(F)(F)F)cc2cccnc12` [Example 17, N—((S)-2-((R)-3-amino-7-(4-fluorophenyl)-3-(trifluoromethyl)-2,3-dihydrofuro[2,3-c]pyridin-5-yl)-2-hydroxypropyl)-8-methoxyquinoline-6-carboxamide], for which the EC50 is < 0.2 µM.

For the compound `COc1cnc(C(=O)NC[C@](O)(c2cc3c(c(-c4ccc(F)cc4)n2)OC[C@@]3(N)C(F)(F)F)C(F)(F)F)cc1OC` [Example 35], the EC50 was > 0.2 µM.

Take `CC(C)(C)S(=O)(=O)N[C@@]1(C(F)(F)F)COc2c1cc([C@@](C)(O)CNC(=O)c1cc(OC3CC3)c3ncccc3c1)nc2-c1ccc(F)cc1` [Example 45]: the EC50 was > 0.2 µM.

Regarding `COc1cc(C(=O)NC[C@](C)(O)c2cc3c(c(-c4ccc(F)cc4)n2)OC[C@@]3(NS(=O)(=O)C(C)(C)C)C(F)(F)F)cc2cccnc12` [Example 46], the half-maximal effective concentration (EC50) was > 0.2 µM.

Consider `COc1cc(C(=O)NC[C@](O)(c2cc3c(c(-c4ccc(F)cc4)n2)OC[C@@]3(N)C(F)(F)F)C(F)(F)F)ccc1OCC(C)C` [Example 36], for which the EC50 is > 0.2 µM.

For the compound `C[C@](O)(CNC(=O)c1ccc(OC2CC2)c(-c2cccnc2)c1)c1cc2c(c(-c3ccc(F)cc3)n1)OC[C@@]2(N)C(F)(F)F` [Example 18, N—((S)-2-((R)-3-amino-7-(4-fluorophenyl)-3-(trifluoromethyl)-2,3-dihydrofuro[2,3-c]pyridin-5-yl)-2-hydroxypropyl)-4-cyclopropoxy-3-(pyridin-3-yl)benzamide], the EC50 is < 0.2 µM.

On to `N[C@@]1(C(F)(F)F)COc2c1cc([C@@](O)(CNC(=O)c1cc(OC3CC3)c3c(ccc[n+]3[O-])c1)C1CC1)nc2-c1ccc(F)cc1` [Example 59b], for which the EC50 is > 0.2 µM.

Consider `COc1cc(C(=O)NC[C@](O)(c2cc3c(c(-c4ccc(F)cc4)n2)OC[C@@]3(N)C(F)(F)F)C2COC2)ccc1OC1CC1` [Example 57], for which the EC50 is > 0.2 µM.

As to `COc1cc(C(=O)NC[C@](O)(c2cc3c(c(-c4ccc(F)cc4)n2)OC[C@@]3(N)C(F)(F)F)C(F)(F)F)ccc1C(F)(F)F` [Example 42], the EC50 is > 0.2 µM.

As for `COc1cc(C(=O)NC[C@](O)(c2cc3c(c(-c4ccc(F)cc4)n2)OC[C@@]3(N)C(F)(F)F)C2CC2)cc2cn(C)nc12` [Example 55, N—((S)-2-((R)-3-amino-7-(4-fluorophenyl)-3-(trifluoromethyl)-2,3-dihydrofuro[2,3-c]pyridin-5-yl)-2-cyclopropyl-2-hydroxyethyl)-7-methoxy-2-methyl-2H-indazole-5-carboxamide], the concentration for a half-maximal effect (EC50) is < 0.2 µM.

`Nc1nc2ccc(C(=O)NC[C@](O)(c3cc4c(c(-c5ccc(F)cc5)n3)OC[C@@]4(N)C(F)(F)F)C3CC3)cc2s1` [Example 52, 2-amino-N—((S)-2-((R)-3-amino-7-(4-fluorophenyl)-3-(trifluoromethyl)-2,3-dihydrofuro[2,3-c]pyridin-5-yl)-2-cyclopropyl-2-hydroxyethyl)benzo[d]thiazole-6-carboxamide]: the EC50 is < 0.2 µM.

On to `COc1cc(C(=O)NC[C@](O)(c2cc3c(c(-c4ccc(F)cc4)n2)OC[C@]3(N)C(F)(F)F)C(F)(F)F)ccc1OCCO` [Example 33], for which the EC50 is > 0.2 µM.

For `COc1cccc2cc(C(=O)NC[C@](O)(c3cc4c(c(-c5ccc(F)cc5)n3)OC[C@@]4(N)C(F)(F)F)C(F)(F)F)cnc12` [Example 41], the EC50 is > 0.2 µM.

Regarding `COc1cc(C(=O)NC[C@](O)(c2cc3c(c(-c4ccc(F)cc4)n2)OC[C@@]3(N)C(F)(F)F)C(F)(F)F)nc2ccccc12` [Example 40], the EC50 was > 0.2 µM.

As for `COc1cc(C(=O)NC[C@@](O)(c2cc3c(c(-c4ccc(F)cc4)n2)OC[C@]3(N)C(F)(F)F)C(F)(F)F)ccc1OCCO` [Example 32], the EC50 is > 0.2 µM.

In the case of `N[C@@]1(C(F)(F)F)COc2c1cc([C@@](O)(CNC(=O)c1cc(OC3CC3)c3ncccc3c1)C1COC1)nc2-c1ccc(F)cc1` [Example 58], the EC50 is > 0.2 µM.

In the case of `N[C@@]1(C(F)(F)F)COc2c1cc([C@@](O)(CNC(=O)c1cc(OC3CC3)c3nc(Cl)ccc3c1)C1CC1)nc2-c1ccc(F)cc1` [Example 59d], the EC50 was < 0.2 µM.

For `Cc1ccc2cc(C(=O)NC[C@](O)(c3cc4c(c(-c5ccc(F)cc5)n3)OC[C@@]4(N)C(F)(F)F)C3CC3)cc(OC3CC3)c2n1` [Example 59e], the EC50 was < 0.2 µM.

The assay is the same for the next values; noted with them: human respiratory syncytial virus, HEp-2, 120 h, read-out: Human RSV-A (“Long” strain) EC50.
For the compound `COc1cc(C(=O)NC[C@](C)(O)c2cc3c(c(-c4ccc(F)cc4)n2)OC[C@@]3(NC(=N)NC#N)C(F)(F)F)ccc1OC1CC1` [Example 21, N—((S)-2-((R)-3-(3-cyanoguanidino)-7-(4-fluorophenyl)-3-(trifluoromethyl)-2,3-dihydrofuro[2,3-c]pyridin-5-yl)-2-hydroxypropyl)-4-cyclopropoxy-3-methoxybenzamide], the EC50 was < 0.2 µM.

As to `COC(=O)N[C@@]1(C(F)(F)F)COc2c1cc([C@@](C)(O)CNC(=O)c1ccc(OC3CC3)c(OC)c1)nc2-c1ccc(F)cc1` [Example 15, methyl ((R)-5-((S)-1-(4-cyclopropoxy-3-methoxybenzamido)-2-hydroxypropan-2-yl)-7-(4-fluorophenyl)-3-(trifluoromethyl)-2,3-dihydrofuro[2,3-c]pyridin-3-yl)carbamate], the EC50 is < 0.2 µM.
